{"source": "patent US7799803B2", "about": "“Hydroxamic acid compounds and methods of use thereof” (The Trustees of Columbia University in the City of New York, priority 2003, dated 2010)", "key": {"[1]": {"tested_on": "human bladder carcinoma cell line, T24", "assay": "T24 cell-based proliferation assay", "settings": "T-24, T24 cells treated 72 hours, DNA quantitated with bisbenzamide, Table 3, read-out: Cell Growth Inhbition, IC50", "description": "Proliferation The novel compounds of the present invention were tested for their ability to inhibit growth of the human bladder carcinoma cell line, T24. Cells were treated with compounds for 72 hours, lysed by freeze/thaw to expose the DNA, and then the DNA was quantitated using the intercalating dye, bisbenzamide (Sigma). Fluorescent intensity (ex 350λ em 460λ) was directly proportional to the number of cells per well. Fluorescence values from vehicle-treated cells were determined and used as 100%."}, "[2]": {"molecular_target": "T1, histone deacetylase, subtype 1 (HDAC1) (Homo sapiens, UniProt Q13547)", "T1 construct": "Flag; made in house", "T1 sequence (Q13547 whole entry)": "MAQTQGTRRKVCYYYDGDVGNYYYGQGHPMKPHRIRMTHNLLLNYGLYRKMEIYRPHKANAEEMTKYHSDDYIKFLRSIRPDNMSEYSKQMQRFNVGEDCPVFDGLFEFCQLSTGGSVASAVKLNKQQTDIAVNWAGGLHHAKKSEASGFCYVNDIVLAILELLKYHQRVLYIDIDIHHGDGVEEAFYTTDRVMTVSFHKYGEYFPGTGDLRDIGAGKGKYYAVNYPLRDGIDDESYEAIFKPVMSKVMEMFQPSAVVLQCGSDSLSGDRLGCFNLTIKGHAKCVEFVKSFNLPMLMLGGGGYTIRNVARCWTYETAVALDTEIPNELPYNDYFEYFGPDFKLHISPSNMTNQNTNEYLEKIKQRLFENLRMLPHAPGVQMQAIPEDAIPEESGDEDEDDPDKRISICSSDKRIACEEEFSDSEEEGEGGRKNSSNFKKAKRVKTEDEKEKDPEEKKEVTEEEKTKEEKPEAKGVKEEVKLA", "assay": "HDAC1-Flag in vitro deacetylation assay", "type": "biochemical", "description": "Novel compounds were tested for their ability to inhibit histone deacetylase, subtype 1 (HDAC1) using an in vitro deacetylation assay. The enzyme source for this assay was an epitope-tagged human HDAC1 complex immuno-purified from stably expressing mammalian cells. The substrate consisted of a commercial product containing an acetylated lysine side chain (Biomol, Plymouth Meeting, Pa.). Upon deacetylation of the substrate by incubation with the purified HDAC1 complex, a fluorophore is produced that is directly proportional to the level of deacetylation. Using a substrate concentration at the Km for the enzyme preparation, the deacetylation assay was performed in the presence of increasing concentrations of novel compounds to semi-quantitatively determine the concentration of compound required for 50% inhibition (IC50) of the deacetylation reaction."}, "[3]": {"settings": "epitope-tagged human HDAC1 complex, substrate concentration at Km, Table 2, read-out: HDAC Inhibition IC50"}, "[4]": {"settings": "Table 4, additional compounds, n = 2, read-out: HDAC inhibition IC50"}}, "note": "Read-outs that look alike come from different tables or passages of the source.", "data": [{"smiles": "O=C(CCCCC[C@H](NC(=O)OCc1ccccc1)C(=O)NCc1ccccc1)NO", "note": "[Compound 2]", "values": [{"measurement": "IC50", "setting": "[1]", "value": 1400, "unit": "nM"}, {"measurement": "IC50", "setting": "[2]; [3]", "value": 37.4, "unit": "nM"}]}, {"smiles": "O=C(CCCCC[C@H](NC(=O)c1ccc2ccccc2n1)C(=O)NCc1ccccc1)NO", "note": "[Compound 3]", "values": [{"measurement": "IC50", "setting": "[1]", "value": 1700, "unit": "nM"}, {"measurement": "IC50", "setting": "[2]; [3]", "value": 52.7, "unit": "nM"}]}, {"smiles": "O=C(CCCCCC(C(=O)NCCc1ccccc1)C(=O)NCCc1ccccc1)NO", "note": "[Compound 13]", "values": [{"measurement": "IC50", "setting": "[2]; [4]", "value": "186 ± 21.9", "unit": "nM"}]}, {"smiles": "O=C(CCCCC[C@H](NC(=O)c1cccnc1)C(=O)Nc1ccc2ncccc2c1)NO", "note": "[Compound 8]", "values": [{"measurement": "IC50", "setting": "[1]", "value": 1800, "unit": "nM"}, {"measurement": "IC50", "setting": "[2]; [3]", "value": 1.6, "unit": "nM"}]}, {"smiles": "O=C(CCCCC[C@H](NC(=O)c1ccccc1)C(=O)Nc1ccc2ncccc2c1)NO", "note": "[Compound 6b, (2S)-2-BENZOYLAMINO-OCTANEDIOIC ACID 8-HYDROXYAMIDE 1-QUINOLIN-6-YLAMIDE]", "values": [{"measurement": "IC50", "setting": "[1]", "value": 200, "unit": "nM"}, {"measurement": "IC50", "setting": "[2]; [3]", "value": 1.8, "unit": "nM"}]}, {"smiles": "O=C(CCCCC[C@H](NC(=O)c1ccccc1)C(=O)Nc1cccc2cccnc12)NO", "note": "[Compound 11]", "values": [{"measurement": "IC50", "setting": "[1]", "value": 300, "unit": "nM"}, {"measurement": "IC50", "setting": "[2]; [3]", "value": 12.7, "unit": "nM"}]}, {"smiles": "O=C(CCCCC[C@H](NC(=O)c1ccc2ccccc2n1)C(=O)Nc1cccc2cccnc12)NO", "note": "[Compound 10]", "values": [{"measurement": "IC50", "setting": "[1]", "value": 1400, "unit": "nM"}, {"measurement": "IC50", "setting": "[2]; [3]", "value": 41.8, "unit": "nM"}]}, {"smiles": "O=C(CCCCC[C@H](NC(=O)c1cccnc1)C(=O)Nc1cccc2cccnc12)NO", "note": "[Compound 9]", "values": [{"measurement": "IC50", "setting": "[1]", "value": 400, "unit": "nM"}, {"measurement": "IC50", "setting": "[2]; [3]", "value": 4.1, "unit": "nM"}]}, {"smiles": "O=C(CCCCC[C@H](NC(=O)c1cccnc1)C(=O)NCc1ccccc1)NO", "note": "[Compound 5]", "values": [{"measurement": "IC50", "setting": "[1]", "value": 9200, "unit": "nM"}, {"measurement": "IC50", "setting": "[2]; [3]", "value": 150, "unit": "nM"}]}, {"smiles": "O=C(CCCCCC(C(=O)NCc1ccccc1)C(=O)NCc1ccccc1)NO", "note": "[Compound 12]", "values": [{"measurement": "IC50", "setting": "[2]; [4]", "value": "156 ± 22.6", "unit": "nM"}]}, {"smiles": "O=C(CCCCC[C@H](NC(=O)OCc1ccccc1)C(=O)Nc1ccc2ncccc2c1)NO", "note": "[Compound 6a, (S)-[6-HYDROXYCARBAMOYL-1-(QUINOLIN-6-YLCARBAMOYL)-HEXYL]-CARBAMIC ACID BENZYL ESTER]", "values": [{"measurement": "IC50", "setting": "[1]", "value": 200, "unit": "nM"}, {"measurement": "IC50", "setting": "[2]; [3]", "value": 5.9, "unit": "nM"}]}, {"smiles": "O=C(CCCCC[C@H](NC(=O)c1ccccc1)C(=O)NCc1ccccc1)NO", "note": "[Compound 4]", "values": [{"measurement": "IC50", "setting": "[1]", "value": 3200, "unit": "nM"}, {"measurement": "IC50", "setting": "[2]; [3]", "value": 73, "unit": "nM"}]}, {"smiles": "O=C(CCCCC[C@H](NC(=O)c1ccc2ccccc2n1)C(=O)Nc1ccc2ncccc2c1)NO", "note": "[Compound 7]", "values": [{"measurement": "IC50", "setting": "[1]", "value": 600, "unit": "nM"}, {"measurement": "IC50", "setting": "[2]; [3]", "value": 54.5, "unit": "nM"}]}]}
